Consider 4 compounds from patent US20140349994A1, “Novel 2-Amino-4,5,6,8-Tetrahydropyrazolo[3,4-b]Thiazolo [4,5-d]Azepine Derivatives and Their Use as Allosteric Modulators of Metabotropic Glutamate Receptors” (Addex Pharma S.A., priority 2012, published 2014).

The target of series [1] is T1, recombinant human mGluR4a receptors (Homo sapiens, UniProt Q14833).
T1 construct: expressed in transfected cells
Kind of series: mGluR4 assay on HEK-expressing human mGluR4: fluorescent cell based Ca2+ mobilization assay (FLIPR). Conditions: HEK-293 cells expressing hmGluR4; enhancement of EC25 glutamate response; mean of at least three independent experiments in duplicate; read-out: Ca^2+ Flux (mean EC50). An excerpt:
mGluR4 Assay on HEK-Expressing Human mGluR4
The compounds of the present invention are positive allosteric modulators of mGluR4 receptor. Their activity was examined on recombinant human mGluR4a receptors by detecting changes in intracellular Ca^2+ concentration, using the fluorescent Ca^2+-sensitive dye Fluo4-(AM) and a Fluorometric Imaging Plate Reader (FLIPR, Molecular Devices, Sunnyvale, Calif.).
The cDNA encoding the human metabotropic glutamate receptor (hmGluR4), (accession number NM 000841.1, NCBI Nucleotide database browser), was subcloned into an expression vector containing also the hygromycin resistance gene. In parallel, the cDNA encoding a G protein allowing redirection of the activation signal to intracellular calcium flux was subcloned into a different expression vector containing also the puromycin resistance gene. Transfection of both these vectors into HEK293 cells with PolyFect reagent (Qiagen) according to supplier's protocol, and hygromycin and puromycin treatment allowed selection of antibiotic resistant cells which had integrated stably one or more copies of the plasmids. Positive cellular clones expressing hmGluR4 were identified in a functional assay measuring changes in calcium fluxes in response to glutamate or selective known mGluR4 orthosteric agonists and antagonists.
HEK-293 cells expressing hmGluR4 were maintained in media containing DMEM, dialyzed Fetal Calf Serum (10%), Glutamax™ (2 mM), Penicillin (100 units/mL), Streptomycin (100 μg/mL), Geneticin (100 μg/mL) and Hygromycin-B (40 μg/mL) and puromycin (1 μg/mL) at 37° C.5% CO2.
Human mGluR4 HEK-293 cells were plated out 24 hours prior to FLIPR^384 assay in black-walled, clear-bottomed, poly-L-ornithine-coated 384-well plates at a density of 25,000 cells/well in a glutamine/glutamate free DMEM medium containing foetal bovine serum (10%), penicillin (100 units/mL) and streptomycin (100 μg/mL) at 37° C.5% CO2.
On the day of the assay, the medium was aspirated and the cells were loaded with a 3 μM solution of Fluo4-AM (LuBioScience, Lucerne, Switzerland) in 0.03% pluronic acid. After 1 hour at 37° C. 5% CO2, the non incorporated dye was removed by washing cell plate with the assay buffer and the cells were left in the dark at room temperature for six hours before testing. All assays were performed in a pH 7.4 buffered-solution containing 20 mM HEPES, 143 mM NaCl, 6 mM KCl, 1 mM MgSO4, 1 mM CaCl2, 0.125 mM sulfapyrazone and 0.1% glucose.
After 10 s of basal fluorescence recording, various concentrations of the compounds of the invention were added to the cells. Changes in fluorescence levels were first monitored for 180 s in order to detect any agonist activity of the compounds. Then the cells were stimulated by an EC25 glutamate concentration for an additional 110 s in order to measure enhancing activities of the compounds of the invention. EC25 glutamate concentration is the concentration giving 25% of the maximal glutamate response.
The concentration-response curves of representative compounds of the present invention were generated using the Prism GraphPad software (Graph Pad Inc, San Diego, USA). The curves were fitted to a four-parameter logistic equation:
(Y=Bottom+(Top-Bottom)(1+10̂((Log EC50−X)*Hill Slope)
allowing the determination of EC50 values.
The Table 3 below represents the mean EC50 obtained from at least three independent experiments of selected molecules performed in duplicate.

Structures are written as SMILES.

T1 sequence (Q14833 33-912): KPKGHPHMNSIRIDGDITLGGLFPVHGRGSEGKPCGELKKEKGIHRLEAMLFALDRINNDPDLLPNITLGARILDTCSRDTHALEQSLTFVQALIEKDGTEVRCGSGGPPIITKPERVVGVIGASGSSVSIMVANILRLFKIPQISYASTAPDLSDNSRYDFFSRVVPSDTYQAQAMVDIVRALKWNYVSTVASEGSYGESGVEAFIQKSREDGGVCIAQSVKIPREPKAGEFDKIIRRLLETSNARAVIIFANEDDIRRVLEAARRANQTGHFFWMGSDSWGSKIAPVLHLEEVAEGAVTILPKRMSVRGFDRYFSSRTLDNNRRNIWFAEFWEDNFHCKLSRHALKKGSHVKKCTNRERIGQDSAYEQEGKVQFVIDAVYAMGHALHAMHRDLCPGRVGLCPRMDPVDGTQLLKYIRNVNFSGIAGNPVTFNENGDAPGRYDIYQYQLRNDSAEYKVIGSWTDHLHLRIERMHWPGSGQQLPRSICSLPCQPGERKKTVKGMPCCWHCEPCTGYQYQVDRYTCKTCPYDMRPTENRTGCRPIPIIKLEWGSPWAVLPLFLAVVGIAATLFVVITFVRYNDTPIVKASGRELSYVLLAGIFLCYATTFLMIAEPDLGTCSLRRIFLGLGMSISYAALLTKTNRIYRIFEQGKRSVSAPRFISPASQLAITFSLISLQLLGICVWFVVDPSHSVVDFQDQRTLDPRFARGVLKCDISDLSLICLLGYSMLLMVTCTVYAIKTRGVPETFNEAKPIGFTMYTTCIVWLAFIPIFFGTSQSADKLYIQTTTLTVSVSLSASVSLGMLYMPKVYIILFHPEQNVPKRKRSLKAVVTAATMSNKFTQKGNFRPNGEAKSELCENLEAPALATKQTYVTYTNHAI

`Fc1cnc(Nc2nc3c(s2)CCN(CCCN2CCC(F)(F)CC2)c2[nH]ncc2-3)nc1` [Compound 1-148, 6-(3-(4,4-Difluoropiperidin-1-yl)propyl)-N-(5-fluoropyrimidin-2-yl)-4,5,6,8-tetrahydropyrazolo[3,4-b]thiazolo[4,5-d]azepin-2-amine] had a melting point of 238 to 240 °C. Further, the EC50 in series [1] was 0.1 to 1 µM.

`FCCCN1CCc2sc(Nc3ncc(F)cn3)nc2-c2cn[nH]c21` [Compound 1-149] came in with a melting point of over 290 °C. For the same compound, the EC50 in series [1] lay within 1 to 10 µM.

`O=S1(=O)CCN(CCCN2CCc3sc(Nc4ncc(F)cn4)nc3-c3cn[nH]c32)CC1` [Compound 1-151, 4-(3-(2-((5-Fluoropyrimidin-2-yl)amino)-4,5-dihydropyrazolo[3,4-b]thiazolo[4,5-d]azepin-6(8H)-yl)propyl)thiomorpholine 1,1-dioxide]: the melting point lay in the range of 272 to 273 °C. In series [1], the EC50 is under 0.1 µM.

Regarding `CC1COCC(C)N1CCCN1CCc2sc(Nc3ncc(F)cn3)nc2-c2cn[nH]c21` (centres unmarked) [Compound 1-153], the melting point was found to be 223 °C. Further, in series [1], the EC50 was under 0.1 µM.

As a reminder, the melting point is the temperature of the solid-liquid transition. For orientation: EC50 means the concentration that produces a half-maximal response.
